Test results from ChEMBL document CHEMBL5154649, “Design, synthesis, and characterization of novel aminoalcohol quinolines with strong in vitro antimalarial activity” (Eur J Med Chem, 2022).

Tests used:
Plasmodium falciparum [1] = assay: Antiplasmodial activity against CQ-susceptible Plasmodium falciparum 3D7 assessed as inhibition of parasite growth measured after 48 hrs by SYBR Green 1 dye based fluorescence assay; assay type: functional, organism-based; conditions: 3D7, 48 h
Plasmodium falciparum [2] = assay: Antiplasmodial activity against CQ-resistant Plasmodium falciparum W2 assessed as inhibition of parasite growth measured after 48 hrs by SYBR Green 1 dye based fluorescence assay; assay type: functional, organism-based; conditions: W2, 48 h
Plasmodium falciparum [3] = assay: Selectivity index, ratio of IC50 for antiplasmodial activity against CQ-susceptible Plasmodium falciparum 3D7 to IC50 for antiplasmodial activity against CQ-resistant Plasmodium falciparum W2 by SYBR Green 1 dye based fluorescence assay; assay type: functional
[4] = Cytotoxicity against human HepG2 cells assessed as reduction in cell viability incubated for 72 hrs by MTT assay; assay type: toxicity, cell-based
[5] = Cytotoxicity against Chinese hamster CHO cells assessed as reduction in cell viability incubated for 24 hrs by MTT assay; assay type: toxicity, cell-based, Cricetulus griseus
[6] = Cytotoxicity against human THP-1 cells assessed as reduction in cell viability incubated for 72 hrs by MTT assay; assay type: toxicity, cell-based
[7] = Cytotoxicity against human HFF cells assessed as reduction in cell viability incubated for 72 hrs by MTT assay; assay type: toxicity, cell-based
[8] = Selectivity index, ratio of IC50 for cytotoxicity against human HepG2 cells to IC50 for antiplasmodial activity against CQ-susceptible Plasmodium falciparum 3D7 by SYBR Green 1 dye based fluorescence assay; assay type: toxicity, cell-based; conditions: HepG2 cells versus CQ-susceptible Plasmodium falciparum 3D7, read-out: Ratio IC50
[9] = Selectivity index, ratio of IC50 for cytotoxicity against chinese hamster CHO cells to IC50 for antiplasmodial activity against CQ-susceptible Plasmodium falciparum 3D7 by SYBR Green 1 dye based fluorescence assay; assay type: toxicity, cell-based; conditions: CHO cells versus CQ-susceptible Plasmodium falciparum 3D7, read-out: Ratio IC50
[10] = Selectivity index, ratio of IC50 for cytotoxicity against human THP-1 cells to IC50 for antiplasmodial activity against CQ-susceptible Plasmodium falciparum 3D7 by SYBR Green 1 dye based fluorescence assay; assay type: toxicity, cell-based; conditions: THP-1 cells versus CQ-susceptible Plasmodium falciparum 3D7, read-out: Ratio IC50
[11] = Selectivity index, ratio of IC50 for cytotoxicity against human HFF cells to IC50 for antiplasmodial activity against CQ-susceptible Plasmodium falciparum 3D7 by SYBR Green 1 dye based fluorescence assay; assay type: toxicity, cell-based; conditions: HFF cells versus CQ-susceptible Plasmodium falciparum 3D7, read-out: Ratio IC50
[12] = Selectivity index, ratio of IC50 for cytotoxicity against human HepG2 cells to IC50 for antiplasmodial activity against Plasmodium falciparum 3D7 infected in human erythrocytes by HRP2-ELISA; assay type: toxicity, cell-based; conditions: read-out: Ratio IC50
[13] = Selectivity index, ratio of IC50 for cytotoxicity against chinese hamster CHO cells to IC50 for antiplasmodial activity against Plasmodium falciparum 3D7 infected in human erythrocytes by HRP2-ELISA; assay type: toxicity, cell-based; conditions: read-out: Ratio IC50
[14] = Selectivity index, ratio of IC50 for cytotoxicity against human THP-1 cells to IC50 for antiplasmodial activity against Plasmodium falciparum 3D7 infected in human erythrocytes by HRP2-ELISA; assay type: toxicity, cell-based; conditions: read-out: Ratio IC50
[15] = Selectivity index, ratio of IC50 for human HFF cells to IC50 for antiplasmodial activity against Plasmodium falciparum 3D7 infected in human erythrocytes by HRP2-ELISA; assay type: toxicity, cell-based; conditions: read-out: Ratio IC50
[16] = Apparent permeability across apical to basolateral side in human Caco-2/TC7 cells at 20 uM incubated for 2 hrs by LC-MS/MS analysis; assay type: ADME, cell-based, Caco2/TC7
[17] = Apparent permeability across apical to basolateral side in human Caco-2/TC7 cells assessed as drug recovery at 20 uM incubated for 2 hrs by LC-MS/MS analysis; assay type: ADME, cell-based, Caco2/TC7; conditions: read-out: Drug recovery
[18] = target: Voltage-gated inwardly rectifying potassium channel KCNH2 (Homo sapiens, UniProt Q12809); assay: Inhibition of hERG channel expressed in CHO cells at holding potential of -80 mV by whole cell patch clamp method; assay type: toxicity, cell-based
Chain of Voltage-gated inwardly rectifying potassium channel KCNH2 (Q12809 whole entry): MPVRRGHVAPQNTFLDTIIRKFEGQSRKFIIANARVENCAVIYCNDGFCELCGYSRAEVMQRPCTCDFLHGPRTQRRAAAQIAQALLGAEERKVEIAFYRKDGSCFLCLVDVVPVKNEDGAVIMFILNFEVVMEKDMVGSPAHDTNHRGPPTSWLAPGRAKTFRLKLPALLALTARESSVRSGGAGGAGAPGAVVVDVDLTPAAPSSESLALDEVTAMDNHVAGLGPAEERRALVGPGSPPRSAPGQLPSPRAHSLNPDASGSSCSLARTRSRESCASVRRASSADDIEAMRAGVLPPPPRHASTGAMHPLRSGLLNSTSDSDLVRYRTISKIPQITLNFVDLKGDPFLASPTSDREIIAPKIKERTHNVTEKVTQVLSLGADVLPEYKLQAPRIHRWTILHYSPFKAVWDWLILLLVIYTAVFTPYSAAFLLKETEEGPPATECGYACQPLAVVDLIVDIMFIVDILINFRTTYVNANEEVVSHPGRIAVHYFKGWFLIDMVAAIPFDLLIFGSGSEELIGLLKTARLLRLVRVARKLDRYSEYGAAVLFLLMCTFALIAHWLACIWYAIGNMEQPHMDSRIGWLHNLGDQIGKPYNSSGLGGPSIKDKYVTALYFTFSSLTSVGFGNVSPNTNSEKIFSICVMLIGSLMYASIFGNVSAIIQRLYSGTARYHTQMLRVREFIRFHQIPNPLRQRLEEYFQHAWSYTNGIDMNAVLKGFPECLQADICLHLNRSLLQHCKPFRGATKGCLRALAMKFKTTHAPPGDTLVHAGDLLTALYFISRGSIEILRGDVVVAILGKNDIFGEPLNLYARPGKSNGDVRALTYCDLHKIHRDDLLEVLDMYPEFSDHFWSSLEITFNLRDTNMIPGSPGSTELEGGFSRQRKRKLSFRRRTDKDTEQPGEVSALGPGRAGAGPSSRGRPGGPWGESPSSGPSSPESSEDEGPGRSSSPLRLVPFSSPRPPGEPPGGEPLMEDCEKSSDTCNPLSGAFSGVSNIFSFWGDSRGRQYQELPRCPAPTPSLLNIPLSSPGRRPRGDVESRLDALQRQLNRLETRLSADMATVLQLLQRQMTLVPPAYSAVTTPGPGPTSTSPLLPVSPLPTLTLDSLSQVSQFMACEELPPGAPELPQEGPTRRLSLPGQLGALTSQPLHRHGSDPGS

[19] = Metabolic stability in mouse liver microsomes assessed as intrinsic clearance at 0.5 uM incubated for 30 mins by LC-MS/MS analysis; assay type: ADME, Microsome; conditions: read-out: CLH
[20] = Metabolic stability in rat liver microsomes assessed as intrinsic clearance at 0.5 uM incubated for 30 mins by LC-MS/MS analysis; assay type: ADME, Microsome; conditions: read-out: CLH
[21] = Metabolic stability in human liver microsomes assessed as intrinsic clearance at 0.5 uM incubated for 30 mins by LC-MS/MS analysis; assay type: ADME, Microsome; conditions: read-out: CLH
Cytochrome P450 3A4 [22] = target: T1, Cytochrome P450 3A4 (Homo sapiens, UniProt P08684); assay: Inhibition of CYP3A4 in human liver microsomes assessed as reduction in 1'-hydroxy midazolam formation using midazolam as substrate preincubated for 20 mins in presence of NADPH followed by incubation with substrate for 10 mins by LC-MS/MS analysis; assay type: ADME, Microsome
T1 sequence (P08684 whole entry): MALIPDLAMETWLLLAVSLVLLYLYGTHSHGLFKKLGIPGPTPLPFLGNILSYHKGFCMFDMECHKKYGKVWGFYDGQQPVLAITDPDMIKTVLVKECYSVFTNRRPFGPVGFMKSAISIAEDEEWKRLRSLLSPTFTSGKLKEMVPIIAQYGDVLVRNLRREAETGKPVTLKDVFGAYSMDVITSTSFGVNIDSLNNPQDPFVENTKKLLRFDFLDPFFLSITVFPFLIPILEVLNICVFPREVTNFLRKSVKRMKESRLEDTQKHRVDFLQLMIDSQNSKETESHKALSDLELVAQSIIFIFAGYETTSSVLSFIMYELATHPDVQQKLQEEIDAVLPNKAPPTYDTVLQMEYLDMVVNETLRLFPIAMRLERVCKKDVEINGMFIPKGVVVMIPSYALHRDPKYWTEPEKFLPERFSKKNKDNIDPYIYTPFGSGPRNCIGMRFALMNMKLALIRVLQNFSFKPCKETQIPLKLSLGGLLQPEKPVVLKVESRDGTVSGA

Cytochrome P450 3A4 [23] = target: T1, Cytochrome P450 3A4; assay: Inhibition of CYP3A4 in human liver microsomes assessed as reduction in 6-beta-hydroxy-testosterone formation using testosterone as substrate preincubated for 20 mins in presence of NADPH followed by incubation with substrate for 10 mins by LC-MS/MS analysis; assay type: ADME, Microsome
Plasmodium falciparum [24] = assay: Antiplasmodial activity against CQ-susceptible Plasmodium falciparum 3D7 infected in human erythrocytes assessed as inhibition of parasite growth measured after 72 hrs by HRP2-ELISA; assay type: functional, organism-based; conditions: 3D7, Erythrocyte
Plasmodium falciparum [25] = assay: Antiplasmodial activity CQ-resistant Plasmodium falciparum W2 infected in human erythrocytes assessed as inhibition of parasite growth measured after 72 hrs by HRP2-ELISA; assay type: functional, organism-based; conditions: W2, Erythrocyte
Plasmodium falciparum [26] = assay: Selectivity index, ratio of IC50 for antiplasmodial activity against CQ-susceptible Plasmodium falciparum 3D7 to IC50 for antiplasmodial activity CQ-resistant Plasmodium falciparum W2 by HRP2-ELISA; assay type: functional
[27] = Genotoxicity in CHO-K1 cells at 0.001 to 1 mM incubated for 3 hrs in presence of S9 mix by in vitro micronucleus test; assay type: toxicity, cell-based, Cricetulus griseus; conditions: chinese hamster, cho-k1, 3 h, 1000 µM, dose 0.001-1 mM
[28] = Genotoxicity in CHO-K1 cells at 0.001 to 1 mM incubated for 24 hrs without metabolic activation by in vitro micronucleus test; assay type: toxicity, cell-based, Cricetulus griseus; conditions: chinese hamster, cho-k1, 24 h, 1000 µM, dose 0.001-1 mM
[29] = Drug metabolism in mouse liver microsomes assessed as (S)-2-(((S)-2-(2,8-Bis(trifluoromethyl)quinolin-4-yl)-2-hydroxyethyl)amino)-3-phenylpropan-1-ol metabolite formation measured after 5 mins by LC-MS analysis; assay type: ADME, Microsome
[30] = Drug metabolism in mouse liver microsomes assessed as (1S)-2-amino-1-[2,8-bis(trifluoromethyl)quinolin-4-yl]ethan-1-ol metabolite formation measured after 5 mins by LC-MS analysis; assay type: ADME, Microsome
[31] = Drug metabolism in rat liver microsomes assessed as oxidative metabolite formation measured after 5 mins by LC-MS analysis; assay type: ADME, Microsome
[32] = Drug metabolism in human liver microsomes assessed as oxidative metabolite formation measured after 5 mins by LC-MS analysis; assay type: ADME, Microsome
Cytochrome P450 3A4 [33] = target: T1, Cytochrome P450 3A4; assay: Inhibition of CYP3A4 in human liver microsomes assessed as reduction in 1'-hydroxy midazolam formation using midazolam as substrate preincubated for 20 mins in absence of NADPH followed by incubation with substrate for 10 mins by LC-MS/MS analysis; assay type: ADME, Microsome
Cytochrome P450 3A4 [34] = target: T1, Cytochrome P450 3A4; assay: Inhibition of CYP3A4 in human liver microsomes assessed as reduction in 6-beta-hydroxy-testosterone formation using testosterone as substrate preincubated for 20 mins in absence of NADPH followed by incubation with substrate for 10 mins by LC-MS/MS analysis; assay type: ADME, Microsome

For O[C@@H](CNCCN1CCN(C(c2ccccc2)c2ccccc2)CC1)c1cc(C(F)(F)F)nc2c(C(F)(F)F)cccc12, the IC50 (Plasmodium falciparum [1]) was 0.0451 µM, the IC50 (Plasmodium falciparum [2]) was 0.0765 µM and the Ratio IC50 (Plasmodium falciparum [3]) was 0.6. It also gave an IC50 at 72 h [4] of 3.3 µM, an IC50 at 24 h [5] of 10.2 µM and an IC50 at 72 h [6] of 7.6 µM. It also gave an IC50 at 72 h [7] of 13.9 µM, a selectivity ratio [8] of 73 and a selectivity ratio [9] of 226. It also gave a selectivity ratio [10] of 168 and a selectivity ratio [11] of 308.

COC[C@H](Cc1ccccc1)NC[C@@H](O)c1cc(C(F)(F)F)nc2c(C(F)(F)F)cccc12 gave an IC50 (Plasmodium falciparum [1]) of 0.0151 µM, an IC50 (Plasmodium falciparum [2]) of 0.0132 µM and a Ratio IC50 (Plasmodium falciparum [3]) of 1.1. For the same molecule, the IC50 at 72 h [4] was 11.6 µM, the IC50 at 24 h [5] was 47.3 µM and the IC50 at 72 h [6] was 16.2 µM. The IC50 at 72 h [7] was 44.2 µM, the selectivity ratio [12] was 778 and the selectivity ratio [13] was 3170. For the same molecule, the selectivity ratio [14] was 1090, the selectivity ratio [15] was 2970 and the Papp A→B at 2 h, 20 µM [16] was 6.1 ×10⁻⁶ cm/s. It also gave a recovery at 2 h, 20 µM [17] of 81%, an IC50 [18] of 17.3 µM and a microsomal CLint at 0.5 µM [19] greater than 1000 µL/min/mg. The microsomal CLint at 0.5 µM [20] was greater than 1000 µL/min/mg, the microsomal CLint at 0.5 µM [21] was greater than 1000 µL/min/mg and the IC50 (Cytochrome P450 3A4 [22]) was 5.9 µM. For the same molecule, the IC50 (Cytochrome P450 3A4 [23]) was 2.3 µM, the IC50 (Plasmodium falciparum [24]) was 0.0149 µM and the IC50 (Plasmodium falciparum [25]) was 0.011 µM. For the same molecule, the Ratio IC50 (Plasmodium falciparum [26]) was 1.35, the Activity [27] was “Non-Toxic” and the Activity [28] was “Non-Toxic”. For the same molecule, the Drug metabolism [29] was “Metabolite_Detected”, the Drug metabolism [30] was “Metabolite_Detected” and the Drug metabolism [31] was “Metabolite_Detected”. For the same molecule, the Drug metabolism [32] was “Metabolite_Detected”, the IC50 (Cytochrome P450 3A4 [33]) was 2.8 µM and the IC50 (Cytochrome P450 3A4 [34]) was 2.9 µM.
